According to patent US20140186260A1, “RADIOPHARMACEUTICAL AND PHARMACEUTICAL KIT” (NIHON MEDI-PHYSICS CO., LTD., priority 2012, published 2014):
Where a name gives a salt, the structure may show the parent alone. Read-outs that look alike come from different tables or passages of the source. Values belong to the compound of their own block, whether it stands above or below them.

What was measured:
[1] = ^64Cu complex exchange reaction between ^64Cu-ATSM and chelating agent in mouse plasma (TLC); details: 37° C., chelating agent 10 mg/mL, ^64Cu-ATSM 6 μCi/mL, 5, 30 or 60 minutes
Description: Blood collected from BALB/c nude mice (male, 6-week old, about 25 g in body weight, obtained from Japan SLC, Inc.) under diethyl ether anesthesia was centrifuged (high-speed cooling centrifuge Model MX-105, from Tomy Co., Ltd., 3,000 rpm, 10 minutes) to provide plasma. In the mouse plasma maintained at 37° C. was mixed each of D-penicillamine, dimercaprol, trientine hydrochloride, and deferoxamine mesylate to a final concentration of 10 mg/mL, to which ^64Cu-ATSM was then added to a final concentration of 6 μCi/mL. After maintaining each of the mixtures at 37° C. for 5 minutes, 30 minutes, or 60 minutes, methanol cooled at 4° C. in advance was added in an equal amount to the plasma thereto, which was thoroughly mixed and centrifuged (as above), followed by analyzing the supernatant by a TLC method.

[2] = test system: HT29 tumor-bearing mice; assay: Effect of D-penicillamine on in vivo pharmacokinetics and excretion of ^64Cu-ATSM in HT29 tumor-bearing mouse (3): repeated administration; details: D-penicillamine 100 mg/kg oral 3 times at 1-hour or 2-hour intervals, vs saline
Description: 185 kBq (5 μCi) of ^64Cu-ATSM was administered through the tail vein of the tumor-bearing mice prepared by the same method as Example 3; D-penicillamine was orally administered to 100 mg/kg 1 hour thereafter; and D-penicillamine was then orally administered to 100 mg/kg 2 times at 1-hour or 2-hour intervals. Saline was administered to a control group in place of D-penicillamine. Thereafter, radioactivity in each organ, urine, and feces was measured as Example 4; the radioactivity distributed in each organ was expressed as % ID/g tissue, and the excretion of radioactivity into urine and feces was expressed as % ID.

[3] = test system: HT29 tumor-bearing mice; assay: Effect of D-penicillamine on in vivo pharmacokinetics of ^64Cu-ATSM in HT29 tumor-bearing mouse (1): before/after dosing; details: vs saline
[4] = test system: HT29 tumor-bearing mice; assay: Effect of D-penicillamine on in vivo pharmacokinetics and excretion of ^64Cu-ATSM in HT29 tumor-bearing mouse (2): dose dependence; details: D-penicillamine 100, 300 or 500 mg/kg oral 1 hour after ^64Cu-ATSM, vs saline
[5] = test system: HT29 tumor-bearing mice; assay: Effect of D-penicillamine on PET imaging of ^64Cu-ATSM in HT29 tumor-bearing mouse; type: in vivo
Description: The distribution of radioactivity was imaged using a PET device specific for small animals (Inveon, from Siemens Medical Systems, Inc.) 30 minutes and 2, 3, 4, 5, 6, 7, 8, and 24 hours after the administration of ^64Cu-ATSM. Image acquisition was performed for 5 minutes from each time point, and the image was reconstructed by a 3-dimensional maximum a posteriori probability method (3D-MAP method) using Inveon Acquisition Workplace Software (from Siemens Medical Systems, Inc.). As a control, PET imaging was also similarly performed in mice receiving the administration of saline in place of D-penicillamine.

[6] = test system: HT29 tumor-bearing mice; assay: Effect of repeated D-penicillamine with or without glycerin enema on in vivo pharmacokinetics and excretion of ^64Cu-ATSM in HT29 tumor-bearing mouse (4); details: D-penicillamine 100 mg/kg oral at 1, 3 and 5 hours after ^64Cu-ATSM, vs saline
Excerpt: FIGS. 12A, 12B and 12C were expressed in average and standard deviation for 4 mice.

[7] = test system: HT29 tumor-bearing mice; details: trientine hydrochloride 500 mg/kg oral 1 hour after ^64Cu-ATSM; vs saline
Description: Human large bowel cancer-derived HT29 cells were purchased from ATCC and proliferated for use. The HT29 tumor-bearing model was prepared by implanting 1×10^7 HT29 cells subcutaneously in the femoral region of BALB/c nude mice (male, 6-week old, about 25 g in body weight, obtained from Japan SLC, Inc.), and used for the experiment 3 weeks after implantation. The tumor-bearing mice were fasted from 16 hours or more before the start of the experiment. 185 kBq (5 μCi) of ^64Cu-ATSM was administered through the tail vein of the HT29 tumor-bearing mice, and D-penicillamine was orally administered to 500 mg/kg 10 minutes therebefore or 1 hour thereafter. Saline was administered to a control group in place of D-penicillamine. They were sacrificed by blood removal from the heart under diethyl ether anesthesia 1, 2, and 3 hours after the administration of ^64Cu-ATSM; each tissue was removed and weighed; and radioactivity was further measured using an automatic gamma counter (Model: 1480 Wizard 3, from PerkinElmer Co., Ltd.). The radioactivity distributed in each organ was expressed as radioactivity per g of organ (% ID (Injected Dose)/g tissue) when the amount administered is set to 100%. 185 kBq (5 μCi) of ^64Cu-ATSM was administered through the tail vein of the HT29 tumor-bearing mice prepared by the same method as Example 3, and D-penicillamine was orally administered to 100, 300, or 500 mg/kg 1 hour thereafter. Saline was administered to a control group in place of D-penicillamine. They were sacrificed by blood removal from the heart under diethyl ether anesthesia 2, 4, 6, 16, and 24 hours after the administration of ^64Cu-ATSM; each tissue was removed and weighed; and radioactivity was further measured. The excreted urine and feces were recovered, and radioactivity was similarly measured. The radioactivity distributed in each organ was expressed as ID/g tissue. The excretion of radioactivity into each of urine and feces was expressed as radioactivity (% ID) when the amount administered was set to 100%. 185 kBq (5 μCi) of ^64Cu-ATSM was administered through the tail vein of the tumor-bearing mice prepared by the same method as Example 3, and trientine hydrochloride was orally administered to 500 mg/kg 1 hour thereafter. Saline was administered to a control group in place of trientine hydrochloride. Thereafter, radioactivity in each organ, urine, and feces was measured as Example 4; the radioactivity distributed in each organ was expressed as % ID/g tissue, and the excretion of radioactivity into urine and feces was expressed as % ID.

[8] = test system: HT29 tumor-bearing mice; assay: Effect of Ca-DTPA on in vivo pharmacokinetics of ^64Cu-ATSM in HT29 tumor-bearing mouse (Comparative Example 1); details: Ca-DTPA 150 mg/kg i.v. 10 minutes after ^64Cu-ATSM; 1 and 2 hours; vs saline
[9] = test system: CD133-positive cells; details: Yoshii et al. 2010; cited from earlier work
[10] = test system: tumor; details: Yoshii et al. 2011; cited from earlier work
[11] = D-penicillamine 300 mg/kg oral 1 hour after 37 MBq ^64Cu-ATSM, vs saline

Compound: CC(C)(S)[C@@H](N)C(=O)O [D-penicillamine]
^64Cu complex exchange reaction from ^64Cu-ATSM to a highly polar complex [1]: Cu-ATSM and unidentified metabolites or degradation products rapidly disappeared, and the origin component increased
uptake of radioactivity into the liver ([2]; from 1 hour after ^64Cu-ATSM): decreased
excretion of radioactivity into feces [2]: less affected
excretion of radioactivity into urine [2]: statistically significantly promoted
uptake of radioactivity into the tumor [2]: not statistically significantly affected
uptake of radioactivity into the tumor ([3]; D-penicillamine 500 mg/kg oral 10 minutes before ^64Cu-ATSM): decreased the uptake of radioactivity into the tumor
uptake of ^64Cu-ATSM into the tumor ([3]; D-penicillamine 500 mg/kg oral 1 hour after ^64Cu-ATSM): did not affect
uptake of radioactivity into the liver ([3]; D-penicillamine 500 mg/kg oral, 10 minutes before or 1 hour after ^64Cu-ATSM i.v., 1, 2, 3 hours): markedly decreased
uptake of radioactivity into the liver ([4]; 2-24 hours): dose-dependently decreased
excretion of radioactivity into feces [4]: less affected
excretion of radioactivity into urine [4]: statistically significantly promoted
uptake of radioactivity into the tumor [4]: not statistically significantly affected
accumulation of radioactivity in the bladder (PET) [5, 11]: increase the accumulation of radioactivity in the bladder
accumulation of radioactivity in the liver (PET) [5, 11]: decrease the accumulation of radioactivity in the liver
accumulation of radioactivity in the tumor (PET) [5, 11]: not affected
uptake of radioactivity into the liver ([6]; 6, 16, 24 hours): decreased
excretion of radioactivity into urine [6]: statistically significantly promoted
uptake of radioactivity into the tumor [6]: not statistically significantly affected

Compound: OCC(S)CS (stereo not drawn) [dimercaprol]
^64Cu complex exchange reaction from ^64Cu-ATSM to a highly polar complex [1]: Cu-ATSM and unidentified metabolites or degradation products rapidly disappeared, and the origin component increased

Compound: CN=C([S-])N/N=C(C)/C(C)=N/NC([S-])=NC.[64Cu+2] [^64Cu-ATSM, radioactive diacetyl-bis(N4-methylthiosemicarbazone) copper complex]
radioactivity accumulation in the liver after ^64Cu-ATSM (PET) ([5]; 37 MBq ^64Cu-ATSM i.v., before chelating agent): radioactivity accumulation in the liver was once observed
accumulation in CD133-positive cells [9]: accumulates in CD133-positive cells
amount of CD133-positive cells in tumor [10]: decreased the amount of CD133-positive cells in tumor
tumor size [10]: shrink the tumor

Compound: CC(=O)N(O)CCCCCNC(=O)CCC(=O)N(O)CCCCCNC(=O)CCC(=O)N(O)CCCCCN [deferoxamine mesylate]
^64Cu complex exchange reaction from ^64Cu-ATSM to a highly polar complex [1]: No complex exchange reaction

Further lines, with some results ahead:

excretion of radioactivity into feces [7]: less affected
excretion of radioactivity into urine [7]: statistically significantly promoted
uptake of radioactivity into the liver [7]: tended to be decreased
uptake of radioactivity into the tumor [7]: not statistically significantly affected
Compound: NCCNCCNCCN [trientine hydrochloride]
^64Cu complex exchange reaction from ^64Cu-ATSM to a highly polar complex [1]: the effect thereof was relatively weak

uptake of radioactivity into each organ and tumor [8]: statistically little affected
Compound: O=C([O-])CN(CCN(CC(=O)[O-])CC(=O)[O-])CCN(CC(=O)[O-])CC(=O)[O-].[Ca+2].[Na+].[Na+].[Na+] [Ca-DTPA]
